The test system of experiment [1] is E. coli. The experiment can be described thus: Fractional inhibitory concentration indices of peptide derivatives in a 2:1 ratio with D-cycloserine against E. coli in Davis minimal medium. The class given is cell-based. The note with it: peptide derivative in a 2:1 ratio with D-cycloserine. The source says: Again, for example, the fractional inhibitory concentration indices of (1R)-1-(L-alanylamino)-ethylphosphonic acid (Derivative A), (1R)-1-(L-alanyl-L-alanylamino)-ethylphosphonic acid (Derivative B), (1R)-1-(L-alanyl-L-alanyl-L-alanylamino)-ethylphosphonic acid (Derivative C), (1R)-1-(L-alanyl-L-alanyl-L-alanyl-L-alanylamino)-ethylphosphonic acid (Derivative D), (1R)-1-(L-phenylalanylamino)-ethylphosphonic acid (Derivative E), (1R)-1-(L-valylamino)-ethylphosphonic acid (Derivative F) and (1R)-1-(L-leucylamino)-ethylphosphonic acid (Derivative G) in a 2:1 ratio with D-cycloserine against E. coli in Davis minimal medium are given in Table 2.

In experiment [2] the test system is E. coli. The experiment can be described thus: Potentiation of antibiotics by the peptide derivative: MIC and fractional inhibitory concentration index against E. coli in Davis minimal medium. The class given is cell-based. The note with it: for Fractional Inhibitory Concentration Index: antibiotic in combination with (1R)-1-(L-alanylamino)-ethylphosphonic acid; for Minimum Inhibitory Concentration, Antibiotic + peptide derivative: concentration of the antibiotic: in combination with (1R)-1-(L-alanylamino)-ethylphosphonic acid. An excerpt: The peptide derivatives provided by this invention potentiate the activity of antibiotics (e.g. penicillin and cephalosporin antibiotics and D-cycloserine). Thus, for example the fractional inhibitory concentration indices of (1R)-1-(L-alanylamino)-ethylphosphonic acid in combination with a cephalosporin, with a penicillin antibiotic and with D-cycloserine against E. coli in Davis minimal medium are given in Table 1.

The structures appear in SMILES notation. Residues, ends and D or L forms follow the SMILES beside them.

Turning to `C[C@H](N)C(=O)N[C@@H](C)C(=O)N[C@@H](C)C(=O)N[C@@H](C)P(=O)(O)O` [Derivative C, (1R)-1-(L-alanyl-L-alanyl-L-alanylamino)-ethylphosphonic acid], in experiment [1], the “Fractional Inhibitory Concentration Index” value came out at 0.1 and the “Fractional Inhibitory Concentration of D-cycloserine” value is reported as 0.05.

Turning to `CC(C)[C@H](N)C(=O)N[C@@H](C)P(=O)(O)O` [Derivative F, (1R)-1-(L-valylamino)-ethylphosphonic acid], in experiment [1], the “Fractional Inhibitory Concentration Index” value turned out to be 0.60 and the “Fractional Inhibitory Concentration of D-cycloserine” value was 0.13.

On to `C[C@H](N)C(=O)N[C@@H](C)P(=O)(O)O` [Derivative A, (1R)-1-(L-alanylamino)-ethylphosphonic acid], for which the “Minimum Inhibitory Concentration, Antibiotic + peptide derivative: concentration of the peptide derivative” value in experiment [2] (in combination with Amoxycillin) stood at 0.06 µg/mL; in experiment [2] (in combination with Cephradine), 0.25 µg/mL; in experiment [2] (in combination with D-Cycloserine), 0.25 µg/mL. Moreover, the “Fractional Inhibitory Concentration Index” value in experiment [1] was found to be 0.3. Besides, in experiment [1], the “Fractional Inhibitory Concentration of D-cycloserine” value came to 0.06.

In the case of `CC1(C)S[C@@H]2[C@H](NC(=O)[C@H](N)c3ccc(O)cc3)C(=O)N2[C@H]1C(=O)O` [Amoxycillin], in experiment [2], the “Minimum Inhibitory Concentration, Antibiotic alone” value stood at 4 µg/mL; the “Fractional Inhibitory Concentration Index” value came to 0.3; the “Minimum Inhibitory Concentration, Antibiotic + peptide derivative: concentration of the antibiotic” value came out at 1 µg/mL.

With `N[C@@H]1CONC1=O` [D-Cycloserine], in experiment [2], the “Minimum Inhibitory Concentration, Antibiotic alone” value is 64 µg/mL; the “Fractional Inhibitory Concentration Index” value worked out at 0.25; the “Minimum Inhibitory Concentration, Antibiotic + peptide derivative: concentration of the antibiotic” value was found to be 0.25 µg/mL.

For the compound `C[C@H](NC(=O)[C@@H](N)Cc1ccccc1)P(=O)(O)O` [Derivative E, (1R)-1-(L-phenylalanylamino)-ethylphosphonic acid], in experiment [1], the “Fractional Inhibitory Concentration Index” value is 0.48 and the “Fractional Inhibitory Concentration of D-cycloserine” value amounted to 0.13.

Regarding `C[C@H](N)C(=O)N[C@@H](C)C(=O)N[C@@H](C)P(=O)(O)O` [Derivative B, (1R)-1-(L-alanyl-L-alanylamino)-ethylphosphonic acid], in experiment [1], the “Fractional Inhibitory Concentration Index” value is 0.2 and the “Fractional Inhibitory Concentration of D-cycloserine” value is given as 0.03.

For `C[C@H](N)C(=O)N[C@@H](C)C(=O)N[C@@H](C)C(=O)N[C@@H](C)C(=O)N[C@@H](C)P(=O)(O)O` [Derivative D, (1R)-1-(L-alanyl-L-alanyl-L-alanyl-L-alanylamino)-ethylphosphonic acid] (HELM PEPTIDE1{A.A.A.A.[C[C@H](N[*:1])P(=O)(O)O]}$$$$V2.0), in experiment [1], the “Fractional Inhibitory Concentration Index” value is 0.2 and the “Fractional Inhibitory Concentration of D-cycloserine” value is reported as 0.10.

For `CC1=C(C(=O)O)N2C(=O)[C@@H](NC(=O)[C@H](N)C3=CCC=CC3)[C@H]2SC1` [Cephradine], in experiment [2], the “Minimum Inhibitory Concentration, Antibiotic alone” value came out at 16 µg/mL; the “Fractional Inhibitory Concentration Index” value was determined as 0.5; the “Minimum Inhibitory Concentration, Antibiotic + peptide derivative: concentration of the antibiotic” value was determined as 4 µg/mL.

`CC(C)C[C@H](N)C(=O)N[C@@H](C)P(=O)(O)O` [Derivative G, (1R)-1-(L-leucylamino)-ethylphosphonic acid]: in experiment [1], the “Fractional Inhibitory Concentration Index” value is reported as 0.27 and the “Fractional Inhibitory Concentration of D-cycloserine” value is on record as 0.12.

Values taken from patent publication US4016148A, “Peptide derivatives of phosphonic and phosphinic acids and intermediates therefor” (Hoffmann-La Roche Inc., priority 1975, dated 1977).
